Results as given in patent US20020183307A1, “Novel 1,4-benzothiazephine and 1,5-benzothiazepine compounds as inhibitors of apical sodium co-dependent bile acid transport and taurocholate uptake” (priority 2000, published 2002).

Biological target: T1, human IBAT (Homo sapiens, UniProt Q12908)
T1 construct: expressed in transfected cells; host or cells: Baby hamster kidney (BHK) cells, H14 clone
T1 sequence (Q12908 1-348): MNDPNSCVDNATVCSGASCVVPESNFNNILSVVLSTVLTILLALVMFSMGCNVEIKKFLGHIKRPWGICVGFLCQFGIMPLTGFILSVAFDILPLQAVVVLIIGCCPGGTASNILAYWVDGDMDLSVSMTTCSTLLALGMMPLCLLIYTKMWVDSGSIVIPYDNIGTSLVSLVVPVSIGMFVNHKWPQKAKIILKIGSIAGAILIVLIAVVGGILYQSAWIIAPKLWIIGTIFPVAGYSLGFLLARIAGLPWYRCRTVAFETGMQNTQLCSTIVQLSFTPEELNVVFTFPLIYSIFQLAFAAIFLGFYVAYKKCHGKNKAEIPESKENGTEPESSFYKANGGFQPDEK
Test: In vitro assay of compounds that inhibit IBAT-mediated uptake of [14C]-taurocholate (TC) in H14 cells
Format: cell-based
Description: In Vitro Assay of Compounds That Inhibit IBAT-mediated Uptake of [^14C]-Taurocholate (TC) in H14 Cells
Baby hamster kidney cells (BHK) transfected with the cDNA of human IBAT (Hl4 cells) are seeded in 96 well Top-Count tissue culture plates at 60,000 cells/well for assays run within 24 hours of seeding, 30,000 cells/well for assays run within 48 hours, and 10,000 cells/well for assays run within 72 hours.
On the day of assay, the cell monolayer is gently washed once with […] (Dulbecco's Modified Eagle's medium with 4.5 g/L glucose plus 0.2% (w/v) fatty acid free bovine serum albumin ((FAF)BSA). To each well […] of a two-fold concentrate of test compound in assay buffer is added along with […] of […] [^14C]-taurocholate in assay buffer (final concentration of […] [^14C]-taurocholate).
The cell culture plates are incubated 2 hours at 37° C. prior to gently washing each well twice with […] 4° C. Dulbecco's phosphate-buffered saline (PBS) containing 0.2% (w/v) (FAF)BSA. The wells are then gently washed once with […] 4° C. PBS without (FAF)BSA. To each […] of liquid, scintillation counting fluid is added.
The plates are heat sealed and shaken for 30 minutes at room temperature prior to measuring the amount of radioactivity in each well on a Packard Top-Count instrument.

[1] = Table 7, 1,5-benzothiazepines, 50% inhibitory concentrations by the biological evaluation procedures
[2] = Table 8, 1,4 and 1,5 benzothiazipines, additional IC50 values

IC50 [1] [nM]	IC50 [2] [nM]	Structure (SMILES)
31	–	CCCCC1(CCCC)CN(c2ccc(OCc3ccc(C[N+]45CCN(CC4)CC5)cc3)cc2)c2cc(N(C)C)ccc2S(=O)(=O)C1 [PHA00384640E]
289	–	CCCCC1(CCCC)CN(c2ccc(OC)cc2)c2cc(N(C)C)ccc2S(=O)(=O)C1 [SC-86287]
> 1000	–	CCCCC1(CCCC)CN(c2ccc(OCC[N+](CC)(CC)CC)cc2)c2cc(N(C)C)ccc2S(=O)(=O)C1 [PHA00400884E]
–	289	CCCCC1(CCCC)CN(c2ccc(OC)cc2)c2cc(N(C)C)ccc2S(=O)(=O)C1 [Compound 6, 3,3-Dibutyl-2,3,4,5-tetrahydro-7-dimethylamino-5-(4′-methoxyphenyl)-1,5-benzothiazepine1,1-dioxide]
–	30	CCCCC1(CCCC)CN(c2ccc(OCc3ccc(C[N+]45CCN(CC4)CC5)cc3)cc2)c2cc(N(C)C)ccc2S(=O)(=O)C1 [Compound 9, 1-[[4-[[4-[3,3-Dibutyl-7-(dimethylamino)-2,3,4,5-tetrahydro-1,1-dioxido-1,5-benzothiazepin-5-yl]phenoxy]methyl]phenyl]methyl]-4-aza-1-azoniabicyclo[2.2.2]octane Chloride]
–	74	CCCCC1(CCCC)CS(=O)(=O)c2ccc(N(C)C)cc2[C@@H](c2ccc(OCCOCCOCC[N+](CC)(CC)CC)cc2)N1 (racemic) [Compound 4, N-[2-[2-[2-[4-[3,3-Dibutyl-7-(dimethylamino)-2,3,4,5-tetrahydro-1,1-dioxido-1 4-benzothiazepin-5-yl]phenoxy]ethoxy]ethoxy]ethoxy]-N,N,N-triethylaminium Iodide]
–	15100	CCCCC1(CCCC)CN(c2ccc(OCC[N+](CC)(CC)CC)cc2)c2cc(N(C)C)ccc2S(=O)(=O)C1 [Compound 7]
–	22	CCCCC1(CCCC)CS(=O)(=O)c2ccc(N(C)C)cc2[C@@H](c2ccc(OCc3ccc(C[N+]45CCN(CC4)CC5)cc3)cc2)N1 (racemic) [Compound 5]
320	–	CCCCC1(CCCC)CN(c2ccc(OC)cc2)c2cc(F)ccc2S(=O)(=O)C1 [SC-86288]
–	600	CCCC[C@]1(CC)CS(=O)(=O)c2ccccc2[C@@H](c2ccccc2)N1 [Compound 1]
–	2090	CCCCC1(CCCC)CS(=O)(=O)c2ccc(N(C)C)cc2[C@@H](c2ccc(OCC[N+](CC)(CC)CC)cc2)N1 (racemic) [Compound 3, N-[2-[4-[3,3-Dibutyl-7-(dimethylamino)-2,3,4,5-etrahydro-1,1-dioxido-1,4-benzothiazepin-5-yl]phenoxy]ethyl]-N,N,N-triethylaminium Iodide]
26400	–	CCCCC1(CCCC)CN(c2ccc(OCCN(CC)CC)cc2)c2cc(N(C)C)ccc2S(=O)(=O)C1 [PHA00400670]

Structure (SMILES)	IC50 [1] [nM]	IC50 [2] [nM]
CCCCC1(CCCC)CN(c2ccc(OCCOCCOCC[N+](CC)(CC)CC)cc2)c2cc(N(C)C)ccc2S(=O)(=O)C1 [PHA00400885E]	300	–
CCCCC1(CCCC)CN(c2ccc(OCCOCCOCC[N+](CC)(CC)CC)cc2)c2cc(N(C)C)ccc2S(=O)(=O)C1 [Compound 8, N-[2-[2-[2-[4-[3,3-Dibutyl-7-(dimethylamino)-2,3,4,5-tetrahydro-1,1-dioxido-1,5-benzothiazepin-5-yl]phenoxy]ethoxy]ethoxy]ethoxy]-NNN-triethylaminium Iodide]	–	300
